Measured values as given in patent US9687539B2, “CD4+ T survivin epitopes and uses thereof” (Commissariat a I'Energie Atomique, priority 2005, dated 2017).
Residues, ends and D or L forms follow the SMILES beside them. No end group written: not given here.

The compounds below were run on 12 predominant HLA II molecules (assay: Binding to the 12 predominant HLA II molecules, summary). Settings: not given.
Design: species or system human
Source text: The assays for binding to HLA II molecules are competitive binding assays with immunoenzymatic visualization, as described in U.S. Pat. No. 6,649,166, Texier et al., J. Immunol., 2000, 164, 3177-3184 and Texier et al., Eur. J. Immunol., 2001, 31, 1837-1846, for the HLA-DR molecules, and in PCT international application WO 03/040299 and Castelli et al., J. Immunol., 2002, 169, 6928-6934, for the HLA-DP4 molecule. The use of these assays for measuring the binding activity of peptides derived from various antigens is illustrated in U.S. Pat. No. 6,649,166 and PCT international applications WO 02/090382, WO 03/040299 and WO 2004/014936.
The sensitivity of each assay is reflected by the IC50 values observed with the nonbiotinylated peptides which correspond to the tracers; the IC50 values of the tracers vary by a factor of less than three.

Row | Compound | Binding specificity for HLA II molecules
1 | CC(C)C[C@H](NC(=O)[C@H](CC(=O)O)NC(=O)[C@@H]1CCCN1)C(=O)N[C@@H](C)C(=O)N[C@@H](CCC(N)=O)C(=O)N[C@@H](CS)C(=O)N[C@@H](Cc1ccccc1)C(=O)N[C@@H](Cc1ccccc1)C(=O)N[C@@H](CS)C(=O)N[C@@H](Cc1ccccc1)C(=O)N[C@@H](CCCCN)C(=O)N[C@@H](CCC(=O)O)C(=O)N[C@@H](CC(C)C)C(=O)N[C@@H](CCC(=O)O)C(=O)NCC(=O)O [52-66, P D L A Q C F F C F K E L E G] (H-PDLAQCFFCFKELEG-OH; N-terminus and C-terminus assumed) | bind only to the HLA-DR11 molecule

Same assay, conditions: number of the 12 predominant HLA II molecules bound (IC50 < 1000 nM)

Row | Compound | No. of molecules fixed
2 | CC(C)C[C@H](NC(=O)[C@H](Cc1ccccc1)NC(=O)[C@@H]1CCCN1C(=O)[C@H](Cc1c[nH]c2ccccc12)NC(=O)[C@H](CC(N)=O)NC(=O)[C@@H](N)CCCCN)C(=O)N[C@@H](CCC(=O)O)C(=O)NCC(=O)N[C@@H](CS)C(=O)N[C@@H](C)C(=O)N[C@@H](CS)C(=O)N[C@H](C(=O)N1CCC[C@H]1C(=O)N[C@@H](CCC(=O)O)C(=O)N[C@@H](CCCNC(=N)N)C(=O)O)[C@@H](C)O [23-37, K N W P F L E G C A C T P E R] (H-KNWPFLEGCACTPER-OH; N-terminus and C-terminus assumed) | 1
3 | CC(C)C[C@H](NC(=O)[C@H](CC(=O)O)NC(=O)[C@@H]1CCCN1)C(=O)N[C@@H](C)C(=O)N[C@@H](CCC(N)=O)C(=O)N[C@@H](CS)C(=O)N[C@@H](Cc1ccccc1)C(=O)N[C@@H](Cc1ccccc1)C(=O)N[C@@H](CS)C(=O)N[C@@H](Cc1ccccc1)C(=O)N[C@@H](CCCCN)C(=O)N[C@@H](CCC(=O)O)C(=O)N[C@@H](CC(C)C)C(=O)N[C@@H](CCC(=O)O)C(=O)NCC(=O)O [52-66, P D L A Q C F F C F K E L E G] (H-PDLAQCFFCFKELEG-OH; N-terminus and C-terminus assumed) | 1
4 | CC(C)C[C@H](NC(=O)[C@H](CCC(=O)O)NC(=O)[C@H](CCCCN)NC(=O)[C@H](Cc1ccccc1)NC(=O)[C@H](CS)NC(=O)[C@H](Cc1ccccc1)NC(=O)[C@H](Cc1ccccc1)NC(=O)[C@H](CS)NC(=O)[C@@H](N)CCC(N)=O)C(=O)N[C@@H](CCC(=O)O)C(=O)NCC(=O)N[C@@H](Cc1c[nH]c2ccccc12)C(=O)N[C@@H](CCC(=O)O)C(=O)N1CCC[C@H]1C(=O)N[C@@H](CC(=O)O)C(=O)O [56-70, Q C F F C F K E L E G W E P D] (H-QCFFCFKELEGWEPD-OH; N-terminus and C-terminus assumed) | 1
5 | QPFLKDHRISTFKNW [11-25, Q P F L K D H R I S T F K N W] | 2
6 | E E L T L G E F L K L D R E R (EELTLGEFLKLDRER; listed as Homo sapiens) [94-108, 15-mer of human survivin, positions 94-108; insoluble peptide] | 0
